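Cultured in 96-well plates, cells were exposed to test compound for 48 hours across five concentrations. Abbreviation: GI50, concentration required for 50% inhibition of growth. TGI is the concentration that stops growth completely.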

Some test systems named below: A498 renal; MALME-3M melanoma; UACC-62 melanoma; HCT-116 colon; PC-3 prostate; SK-MEL-5 melanoma; LOX IMVI melanoma; HS 578T breast; UO-31 renal; OVCAR-3 ovarian.
Holding throughout (experiment): NCI anticancer screen, dose series, 48 h

On to `COC(=O)C1=CNC=C(C(=O)OC)C1C1=CC(=O)C(C)=CC1=O`, for which the GI50 with A498 renal is 13.1 µM; in the test on MALME-3M melanoma, 14.1 µM; in the test on UACC-62 melanoma, 13.6 µM; with HCT-116 colon, 1.94 µM; in the test on PC-3 prostate, 16.3 µM; with SK-MEL-5 melanoma it was 20.7 µM. The GI50 with LOX IMVI melanoma was 14 µM; with HS 578T breast it was 25 µM; with UO-31 renal, 12 µM; with OVCAR-3 ovarian it was 5.64 µM. Besides, the TGI with A498 renal came out at 33.6 µM; in the test on MALME-3M melanoma, 27.5 µM; in the test on UACC-62 melanoma, 26.5 µM; with HCT-116 colon, 3.79 µM; in the test on PC-3 prostate, 30.5 µM; in the test with SK-MEL-5 melanoma, 43.7 µM. The TGI in the test on LOX IMVI melanoma was determined as 28.6 µM; in the test on HS 578T breast, 66.5 µM; in the test on UO-31 renal, 24.5 µM; in the test with OVCAR-3 ovarian, 22.1 µM.
With `COC(=O)[C@@H](C)CNS(=O)(=O)N(c1cc(C(F)(F)F)cc(C(F)(F)F)c1)C1CCN(Cc2ccc(F)cc2)CC1`, the GI50 in the test with A498 renal was 12.8 µM; in the test on MALME-3M melanoma, 6.89 µM; in the test on UACC-62 melanoma, 11 µM; with HCT-116 colon it was 4.41 µM; in the test on PC-3 prostate it was 7.61 µM; in the test on SK-MEL-5 melanoma, 3.19 µM. For the same compound, the GI50 was 8.1 µM in the test on LOX IMVI melanoma, 11.3 µM in the test on HS 578T breast, 11.7 µM in the test on UO-31 renal and 10.4 µM with OVCAR-3 ovarian. Besides, the TGI in the test on A498 renal was determined as 26.2 µM; in the test with MALME-3M melanoma it was 22.3 µM; with UACC-62 melanoma, 24.6 µM; in the test on HCT-116 colon, 16.4 µM; in the test with PC-3 prostate, 20.8 µM; in the test on SK-MEL-5 melanoma, 12 µM. In addition, the TGI in the test on LOX IMVI melanoma was 25 µM; in the test on HS 578T breast it was 27.1 µM; in the test with UO-31 renal, 26 µM; with OVCAR-3 ovarian, 23 µM.
Take `COC1=CC(=O)c2nc(-c3cccc(C)n3)[nH]c2C1=O`: the GI50 was 16.4 µM in the test with A498 renal; 20.8 µM in the test on MALME-3M melanoma; 30.3 µM in the test on UACC-62 melanoma; 18 µM with HCT-116 colon; 11.8 µM with PC-3 prostate; 15.9 µM in the test on SK-MEL-5 melanoma. The GI50 in the test on LOX IMVI melanoma was 49.6 µM; in the test with HS 578T breast it was 25.3 µM; in the test on UO-31 renal it was 26.4 µM; in the test with OVCAR-3 ovarian, 22.9 µM. Also, the TGI in the test on A498 renal was 35.2 µM; in the test on MALME-3M melanoma, 64.3 µM; in the test on UACC-62 melanoma it was greater than 100 µM; in the test on HCT-116 colon, 35.7 µM; in the test with PC-3 prostate it was 39.5 µM; with SK-MEL-5 melanoma it was 36.4 µM. The TGI in the test on LOX IMVI melanoma is greater than 100 µM; in the test on HS 578T breast, 76.7 µM; in the test with UO-31 renal, greater than 100 µM; in the test with OVCAR-3 ovarian, 46.4 µM.
Consider `NS(=O)(=O)c1ccc(N=Nc2c(O)[nH]c3ccc(-c4cnco4)cc23)cc1`, for which the GI50 in the test on A498 renal is greater than 25 µM; with MALME-3M melanoma, greater than 25 µM; in the test with UACC-62 melanoma it was greater than 25 µM; in the test with HCT-116 colon, 6.97 µM; with PC-3 prostate, greater than 25 µM; with SK-MEL-5 melanoma, greater than 25 µM. In addition, the GI50 in the test on LOX IMVI melanoma was 22.8 µM; in the test with HS 578T breast it was greater than 25 µM; in the test with UO-31 renal, greater than 25 µM; with OVCAR-3 ovarian, greater than 25 µM. Moreover, the TGI in the test on A498 renal, with MALME-3M melanoma, with UACC-62 melanoma, in the test with HCT-116 colon, in the test on PC-3 prostate and in the test on SK-MEL-5 melanoma was greater than 25 µM throughout. Moreover, the TGI in the test on LOX IMVI melanoma, with HS 578T breast, in the test with UO-31 renal and in the test with OVCAR-3 ovarian was greater than 25 µM each time.
As for `Oc1cccnc1CN1CCCCC1`, the TGI in the test with A498 renal, in the test with MALME-3M melanoma, with UACC-62 melanoma, with HCT-116 colon, in the test on PC-3 prostate and with SK-MEL-5 melanoma was greater than 100 µM in each case. Also, the TGI in the test on LOX IMVI melanoma, with HS 578T breast, with UO-31 renal and in the test on OVCAR-3 ovarian was greater than 100 µM in each case.
As to `COc1cc2ncnc(Nc3ccc(C)c(O)c3)c2cc1OC`, the GI50 in the test with A498 renal is 5.56 µM; in the test on MALME-3M melanoma, greater than 25 µM; in the test on UACC-62 melanoma it was greater than 25 µM; in the test with HCT-116 colon it was greater than 25 µM; in the test with PC-3 prostate, greater than 19.8 µM; in the test with SK-MEL-5 melanoma, greater than 25 µM. Besides, the GI50 is 10.3 µM with LOX IMVI melanoma, 5.36 µM in the test on HS 578T breast, 1.59 µM with UO-31 renal and 8.94 µM in the test on OVCAR-3 ovarian. Moreover, the TGI in the test on A498 renal is 18 µM; in the test with MALME-3M melanoma it was greater than 25 µM; in the test with UACC-62 melanoma, greater than 25 µM; with HCT-116 colon, greater than 25 µM; in the test with PC-3 prostate, greater than 25 µM; with SK-MEL-5 melanoma it was greater than 25 µM. Moreover, the TGI was greater than 25 µM with LOX IMVI melanoma, 18.8 µM in the test on HS 578T breast, greater than 17.2 µM with UO-31 renal and greater than 25 µM in the test on OVCAR-3 ovarian.
For `O=C(NC1=CC(=O)c2ccccc2C1=O)c1ccccc1`, the GI50 was 4.46 µM in the test on A498 renal; 1.7 µM with MALME-3M melanoma; 0.24 µM in the test on UACC-62 melanoma; 0.409 µM in the test with HCT-116 colon; 0.421 µM in the test on PC-3 prostate; 0.399 µM with SK-MEL-5 melanoma. Also, the GI50 was 1.08 µM with LOX IMVI melanoma, 1.09 µM in the test with HS 578T breast, 0.481 µM with UO-31 renal and 0.685 µM with OVCAR-3 ovarian. Besides, the TGI came out at 17.5 µM in the test with A498 renal; 3.27 µM in the test on MALME-3M melanoma; 0.799 µM with UACC-62 melanoma; 1.6 µM in the test on HCT-116 colon; 2.44 µM in the test with PC-3 prostate; 1.48 µM in the test on SK-MEL-5 melanoma. Also, the TGI in the test with LOX IMVI melanoma was 2.63 µM; in the test on HS 578T breast, 71.9 µM; with UO-31 renal it was 2.18 µM; in the test with OVCAR-3 ovarian it was 2.01 µM.
As for `COc1ccc(Cn2cc3c(c2-c2ccccc2)CC(C)(C)c2cnoc2-3)cc1`, the GI50 with A498 renal is 1.4 µM; in the test on MALME-3M melanoma, 1.63 µM; in the test with UACC-62 melanoma it was 0.958 µM; with HCT-116 colon, 1.47 µM; with PC-3 prostate, 3.27 µM; in the test with SK-MEL-5 melanoma it was 1.6 µM. Further, the GI50 was 3.55 µM in the test with LOX IMVI melanoma, 1.45 µM with HS 578T breast, 3.08 µM in the test on UO-31 renal and 0.662 µM in the test with OVCAR-3 ovarian. In addition, the TGI in the test with A498 renal is 7.72 µM; in the test on MALME-3M melanoma, greater than 100 µM; in the test with UACC-62 melanoma it was greater than 100 µM; with HCT-116 colon, greater than 100 µM; in the test on PC-3 prostate, greater than 100 µM; in the test with SK-MEL-5 melanoma, 9.61 µM. Also, the TGI is greater than 100 µM in the test on LOX IMVI melanoma, 7.91 µM in the test with HS 578T breast, greater than 100 µM in the test on UO-31 renal and 3.28 µM in the test on OVCAR-3 ovarian.
As for `COc1nc2ccccc2cc1-c1nc2c(cnn2-c2ccc(Br)cc2)c(=O)[nH]1`, the GI50 is 0.0139 µM in the test on A498 renal; 0.519 µM with MALME-3M melanoma; 0.0234 µM in the test on UACC-62 melanoma; 0.0196 µM in the test with HCT-116 colon; 0.0231 µM in the test on PC-3 prostate; 0.0293 µM with SK-MEL-5 melanoma. The GI50 is 0.0276 µM in the test on LOX IMVI melanoma, 0.0282 µM with HS 578T breast, 0.0603 µM with UO-31 renal and 0.0171 µM in the test with OVCAR-3 ovarian. In addition, the TGI with A498 renal was 0.521 µM; in the test with MALME-3M melanoma, greater than 50 µM; in the test with UACC-62 melanoma, greater than 50 µM; in the test on HCT-116 colon it was greater than 50 µM; in the test with PC-3 prostate, greater than 50 µM; in the test with LOX IMVI melanoma, greater than 50 µM. Besides, the results for the TGI with HS 578T breast, in the test on UO-31 renal and with OVCAR-3 ovarian were 4.71 µM, greater than 50 µM and 0.219 µM, respectively.

The record behind these values is PubChem BioAssay (NCI).
